Patent US10793580B2, “Substituted pyrazoloazepin-8-ones and their use as phosphodiesterase inhibitors” (LEO Pharma A/S, priority 2016, dated 2020)
pIC50: −log10 of the molar value.

Target: human PDE4D catalytic domain (Homo sapiens (Human), UniProt Q08499)
Assay: PDE4 Assay (TR-FRET, FAM-cAMP cleavage)
Assay type: biochemical
Settings: Table 16, Examples 277-296; read-out: PDE4 IC50 range
Procedure: The human PDE4D catalytic domain (UniProt no. Q08499 [S380-L740]) was incubated with a mixture of non-labelled cAMP (cyclic adenosine monophosphate) and fluorescein amidite (FAM) conjugated cAMP and titrated test or reference Compound. Following brief incubation the enzymatic reaction was stopped by addition of binding buffer containing nanoparticles with immobilized trivalent metal ions capable of binding 1) AMP phospho groups and 2) terbium (Tb) donor fluorophores. Subsequent excitation of the Tb donor triggers time-resolved FRET to adjacent FAM acceptor molecules resulting in light emission. In the presence of a PDE4 inhibitor, AMP generation was reduced resulting in a lower fluorescence signal. The cAMP phosphodiester is not bound by the detection system.
The results were calculated as the molar concentrations resulting in 50% inhibition of the substrate cleavage compared to controls samples, and are expressed as a range of IC50 (nM).

Sequence of human PDE4D catalytic domain (Q08499 380-740): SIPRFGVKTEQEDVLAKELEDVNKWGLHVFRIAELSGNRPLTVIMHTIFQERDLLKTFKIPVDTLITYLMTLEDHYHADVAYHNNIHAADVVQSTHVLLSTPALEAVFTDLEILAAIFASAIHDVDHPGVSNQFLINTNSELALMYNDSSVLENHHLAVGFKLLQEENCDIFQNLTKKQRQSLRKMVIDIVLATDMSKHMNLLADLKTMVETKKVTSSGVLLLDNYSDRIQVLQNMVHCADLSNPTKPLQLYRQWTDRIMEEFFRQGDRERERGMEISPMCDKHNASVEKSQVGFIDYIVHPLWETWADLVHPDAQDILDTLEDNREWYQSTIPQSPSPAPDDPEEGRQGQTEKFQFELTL

| Compound | pIC50 |
| --- | --- |
| CCn1nc(C[C@@H](C)COC(=O)c2cnc(C)s2)c2c1C(=O)NCC1(CCOCC1)C2 [Example 291, [(2R)-3-(1-ethyl-8-oxo-spiro[6,7-dihydro-4H-pyrazolo[3,4-c]azepine-5,4′-tetrahydropyran]-3-yl)-2-methyl-propyl] 2-methylthiazole-5-carboxylate] | > 7.00 |
| CCn1nc(C[C@@H](C)COC(=O)C2CCN(C)CC2)c2c1C(=O)NCC1(CCOCC1)C2 [Example 292, [(2R)-3-(1-ethyl-8-oxo-spiro[6,7-dihydro-4H-pyrazolo[3,4-c]azepine-5,4′-tetrahydropyran]-3-yl)-2-methyl-propyl] 1-methylpiperidine-4-carboxylate] | 6.30 to 7.00 |
| CCn1nc(C[C@@H](C)COC(=O)c2csc(C)n2)c2c1C(=O)NCC1(CCOCC1)C2 [Example 290, [(2R)-3-(1-ethyl-8-oxo-spiro[6,7-dihydro-4H-pyrazolo[3,4-c]azepine-5,4′-tetrahydropyran]-3-yl)-2-methyl-propyl] 2-methylthiazole-4-carboxylate] | > 7.00 |

Same assay, conditions: Table 17, Examples 297-316; read-out: PDE4 IC50 range

| Compound | pIC50 |
| --- | --- |
| CCn1nc(CC(C)(C)COC(=O)c2cnn(C)c2)c2c1C(=O)NCC1(CCOCC1)C2 [Example 299, [3-(1-ethyl-8-oxo-spiro[6,7-dihydro-4H-pyrazolo[3,4-c]azepine-5,4′-tetrahydropyran]-3-yl)-2,2-dimethyl-propyl] 1-methylpyrazole-4-carboxylate] | > 7.00 |
| CCn1nc(CC(C)(C)COC(=O)c2csc(C)n2)c2c1C(=O)NCC1(CCOCC1)C2 [Example 310, [3-(1-ethyl-8-oxo-spiro[6,7-dihydro-4H-pyrazolo[3,4-c]azepine-5,4′-tetrahydro-pyran]-3-yl)-2,2-dimethyl-propyl] 2-methylthiazole-4-carboxylate] | > 7.00 |
| CCn1nc(CC(C)(C)COC(=O)c2cncs2)c2c1C(=O)NCC1(CCOCC1)C2 [Example 306, [3-(1-ethyl-8-oxo-spiro[6,7-dihydro-4H-pyrazolo[3,4-c]azepine-5,4′-tetrahydro-pyran]-3-yl)-2,2-dimethyl-propyl] thiazole-5-carboxylate] | > 7.00 |

Same assay, conditions: human PDE4D catalytic domain (UniProt Q08499 [S380-L740]); 50% inhibition of substrate cleavage; read-out: PDE4 IC50 range

| Compound | pIC50 |
| --- | --- |
| CCn1nc(C[C@@H](C)COC(=O)c2cccc(C(=O)N3CCOCC3)c2)c2c1C(=O)NCC1(CCOCC1)C2 [Example 183, [(2R)-3-(1-ethyl-8-oxo-spiro[6,7-dihydro-4H-pyrazolo[3,4-c]azepine-5,4′-tetrahydropyran]-3-yl)-2-methyl-propyl] 3-(morpholine-4-carbonyl)benzoate] | > 7.00 |
| CCn1nc(CCCOC(=O)c2ccc(Cl)cc2F)c2c1C(=O)NCC1(CCOCC1)C2 [Example 53, 3-(1-ethyl-8-oxo-spiro[6,7-dihydro-4H-pyrazolo[3,4-c]azepine-5,4′-tetrahydropyran]-3-yl)propyl 4-chloro-2-fluoro-benzoate] | > 7.00 |
| CCn1nc(CCCOC(=O)c2ccc(F)c(OC)c2)c2c1C(=O)NCC1(CCOCC1)C2 [Example 36, 3-(1-ethyl-8-oxo-spiro[6,7-dihydro-4H-pyrazolo[3,4-c]azepine-5,4′-tetrahydropyran]-3-yl)propyl 4-fluoro-3-methoxy-benzoate] | > 7.00 |
| CCn1nc(C[C@@H](C)COC(=O)CCOC)c2c1C(=O)NCC1(CCOCC1)C2 [Example 137, [(2R)-3-(1-ethyl-8-oxo-spiro[6,7-dihydro-4H-pyrazolo[3,4-c]azepine-5,4′-tetrahydropyran]-3-yl)-2-methyl-propyl] 3-methoxypropanoate] | > 7.00 |
| CCn1nc(CC(C)(C)COC(=O)c2cccc(C(=O)N3CCCC3)c2)c2c1C(=O)NCC1(CCOCC1)C2 [Example 230, [3-(1-ethyl-8-oxo-spiro[6,7-dihydro-4H-pyrazolo[3,4-c]azepine-5,4′-tetrahydro-pyran]-3-yl)-2,2-dimethyl-propyl] 3-(pyrrolidine-1-carbonyl)benzoate] | > 7.00 |
| CCn1nc(CCCOC(=O)c2c(F)cccc2OC)c2c1C(=O)NCC1(CCOCC1)C2 [Example 41, 3-(1-ethyl-8-oxo-spiro[6,7-dihydro-4H-pyrazolo[3,4-c]azepine-5,4′-tetrahydropyran]-3-yl)propyl 2-fluoro-6-methoxy-benzoate] | > 7.00 |
| CCn1nc(CC(C)(C)COC(=O)c2ccc(S(=O)(=O)C(C)C)cc2)c2c1C(=O)NCC1(CCOCC1)C2 [Example 207, [3-(1-ethyl-8-oxo-spiro[6,7-dihydro-4H-pyrazolo[3,4-c]azepine-5,4′-tetrahydropyran]-3-yl)-2,2-dimethyl-propyl] 4-isopropylsulfonylbenzoate] | > 7.00 |
| CCn1nc(CCCOC(=O)c2cc(C)nc(C)c2)c2c1C(=O)NCC1(CCOCC1)C2 [Example 258, 3-(1-ethyl-8-oxo-spiro[6,7-dihydro-4H-pyrazolo[3,4-c]azepine-5,4′-tetrahydro-pyran]-3-yl)propyl 2,6-dimethylpyridine-4-carboxylate] | > 7.00 |
| CCn1nc(CC(C)(C)COC(=O)c2cccc(OC)c2)c2c1C(=O)NCC1(CCOCC1)C2 [Example 196, [3-(1-ethyl-8-oxo-spiro[6,7-dihydro-4H-pyrazolo[3,4-c]azepine-5,4′-tetrahydropyran]-3-yl)-2,2-dimethyl-propyl] 3-methoxybenzoate] | > 7.00 |
| CCn1nc(CC(C)(C)COC(=O)c2cccc(S(=O)(=O)CC)c2)c2c1C(=O)NCC1(CCOCC1)C2 [Example 204, [3-(1-ethyl-8-oxo-spiro[6,7-dihydro-4H-pyrazolo[3,4-c]azepine-5,4′-tetrahydropyran]-3-yl)-2,2-dimethyl-propyl] 3-ethylsulfonylbenzoate] | > 7.00 |
| CCn1nc(C[C@@H](C)COC(=O)c2ccccc2C)c2c1C(=O)NCC1(CCOCC1)C2 [Example 141, [(2R)-3-(1-ethyl-8-oxo-spiro[6,7-dihydro-4H-pyrazolo[3,4-c]azepine-5,4′-tetrahydropyran]-3-yl)-2-methyl-propyl] 2-methylbenzoate] | > 7.00 |
| CCn1nc(CCCOC(=O)C2CCN(C(=O)OC)CC2)c2c1C(=O)NCC1(CCOCC1)C2 [Example 263, [3-(1-ethyl-8-oxo-spiro[6,7-dihydro-4H-pyrazolo[3,4-c]azepine-5,4′-tetrahydro-pyran]-3-yl)propyl] 1-methoxy-carbonylpiperidine-4-carboxylate] | > 7.00 |
| CCn1nc(CC(C)(C)COC(=O)c2cccc(C(=O)N3CCOCC3)c2)c2c1C(=O)NCC1(CCOCC1)C2 [Example 232, [3-(1-ethyl-8-oxo-spiro[6,7-dihydro-4H-pyrazolo[3,4-c]azepine-5,4′-tetrahydro-pyran]-3-yl)-2,2-dimethyl-propyl] 3-(morpholine-4-carbonyl)benzoate] | > 7.00 |
| CCn1nc(CCCOC(=O)c2cccc(C(N)=O)c2)c2c1C(=O)NCC1(CCOCC1)C2 [Example 113, 3-(1-ethyl-8-oxo-spiro[6,7-dihydro-4H-pyrazolo[3,4-c]azepine-5,4′-tetrahydropyran]-3-yl)propyl 3-carbamoylbenzoate] | > 7.00 |
| CCn1nc(CCCOC(=O)c2cccc(S(N)(=O)=O)c2)c2c1C(=O)NCC1(CCOCC1)C2 [Example 66, 3-(1-ethyl-8-oxo-spiro[6,7-dihydro-4H-pyrazolo[3,4-c]azepine-5,4′-tetrahydropyran]-3-yl)propyl 3-sulfamoylbenzoate] | > 7.00 |
| CCn1nc(CC(C)(C)COC(=O)c2ccc(C(=O)N3CCCC3)cc2)c2c1C(=O)NCC1(CCOCC1)C2 [Example 221, [3-(1-ethyl-8-oxo-spiro[6,7-dihydro-4H-pyrazolo[3,4-c]azepine-5,4′-tetrahydro-pyran]-3-yl)-2,2-dimethyl-propyl] 4-(pyrrolidine-1-carbonyl)benzoate] | > 7.00 |
| CCn1nc(CCCCOC(=O)C2CCCC2)c2c1C(=O)NCC1(CCOCC1)C2 [Example 122, 4-(1-ethyl-8-oxo-spiro[6,7-dihydro-4H-pyrazolo[3,4-c]azepine-5,4′-tetrahydropyran]-3-yl)butyl cyclopentane-carboxylate] | > 7.00 |
| CCn1nc(CCCOC(=O)c2ccc(OC)c(C(F)(F)F)c2)c2c1C(=O)NCC1(CCOCC1)C2 [Example 79, 3-(1-ethyl-8-oxo-spiro[6,7-dihydro-4H-pyrazolo[3,4-c]azepine-5,4′-tetrahydro-pyran]-3-yl)propyl 4-methoxy-3-(trifluoromethyl)benzoate] | > 7.00 |
| CCn1nc(CC(C)(C)COC(=O)[C@H]2CC[C@H](O)CC2)c2c1C(=O)NCC1(CCOCC1)C2 [Example 194, [3-(1-ethyl-8-oxo-spiro[6,7-dihydro-4H-pyrazolo[3,4-c]azepine-5,4′-tetrahydropyran]-3-yl)-2,2-dimethyl-propyl] 4-hydroxycyclohexane-carboxylate] | > 7.00 |
| CCn1nc(CC(C)(C)COC(=O)c2cccc(S(=O)(=O)N3CCN(C(C)=O)CC3)c2)c2c1C(=O)NCC1(CCOCC1)C2 [Example 215, [3-(1-ethyl-8-oxo-spiro[6,7-dihydro-4H-pyrazolo[3,4-c]azepine-5,4′-tetrahydropyran]-3-yl)-2,2-dimethyl-propyl] 3-(4-acetylpiperazin-1-yl)sulfonylbenzoate] | > 7.00 |
| CCn1nc(C[C@@H](C)COC(=O)c2ccc(C(=O)N3CCN(C)CC3)cc2)c2c1C(=O)NCC1(CCOCC1)C2 [Example 175, [(2R)-3-(1-ethyl-8-oxo-spiro[6,7-dihydro-4H-pyrazolo[3,4-c]azepine-5,4′-tetrahydropyran]-3-yl)-2-methyl-propyl] 4-(4-methylpiperazine-1-carbonyl)benzoate] | > 7.00 |
